Laboratory results from patent publication US7741319B2 (Spirogen Limited, priority 2004, dated 2010).

System: K562 human chronic myeloid leukaemia cells
Assay: In vitro cytotoxicity, MTT assay in K562 cells
Assay type: cell-based
Experimental: K562 human chronic myeloid leukaemia cells were maintained in RPM1 1640 medium supplemented with 10% fetal calf serum and 2 mM glutamine at 37° C. in a humidified atmosphere containing 5% CO2 and were incubated with a specified dose of drug for 1 hour or 96 hours at 37° C. in the dark. The incubation was terminated by centrifugation (5 min, 300 g) and the cells were washed once with drug-free medium. Following the appropriate drug treatment, the cells were transferred to 96-well microtiter plates (10^4 cells per well, 8 wells per sample). Plates were then kept in the dark at 37° C. in a humidified atmosphere containing 5% CO2. The assay is based on the ability of viable cells to reduce a yellow soluble tetrazolium salt, 3-(4,5-dimethylthiazol-2-yl)-2,5-diphenyl-2H-tetrazolium bromide (MTT, Aldrich-Sigma), to an insoluble purple formazan precipitate. Following incubation of the plates for 4 days (to allow control cells to increase in number by approximately 10 fold), 20 μL of MTT solution (5 mg/mL in phosphate-buffered saline) was added to each well and the plates further incubated for 5 h. The plates were then centrifuged for 5 min at 300 g and the bulk of the medium pipetted from the cell pellet leaving 10-20 μL per well. DMSO (200 μL) was added to each well and the samples agitated to ensure complete mixing. The optical density was then read at a wavelength of 550 nm on a Titertek Multiscan ELISA plate reader, and a dose-response curve was constructed. For each curve, an IC50 value was read as the dose required to reduce the final optical density to 50% of the control value.

Molecule COc1cc2c(cc1OCCCOc1cc3c(cc1OC)C(=O)N1C=C(/C=C/C(=O)N(C)C)C[C@H]1C=N3)N=C[C@@H]1CC(/C=C/C(=O)N(C)C)=CN1C2=O has an IC50 (K562, 1 h, 1 hour incubation) of 3800 ± 440 nM.
Molecule C/C=C/C1=CN2C(=O)c3cc(OC)c(OC)cc3N=C[C@@H]2C1 [Compound 30q, (11aS)-7,8-Dimethoxy-2-(1-propenyl)-1,11a-dihydro-5H-pyrrolo[2,1-c][1,4]benzodiazepin-5-one] has an IC50 (K562, 96 h, 96 hour incubation period, threshold less than 10 nM) of less than 10 nM and an IC50 (K562, 96 h, 96 hour incubation period, threshold less than 1 μM) of less than 1000 nM.
With COc1ccc(C2=CN3C(=O)c4cc(OC)c(OCCCOc5cc6c(cc5OC)C(=O)N5C=C(c7ccc(OC)cc7)C[C@H]5C=N6)cc4N=C[C@@H]3C2)cc1 [ZC-207, 1,1′-[[(Propane-1,3-diyl)dioxy]bis[(11aS)-7-methoxy-2-(p-methoxybenzene)-1,11a-dihydro-5H-pyrrolo[2,1-c][1,4]benzodiazepine-5-one]]] the IC50 (K562, 1 h, 1 hour incubation) was 5.3 ± 4.9 nM.
Molecule COc1cc2c(cc1OCCCOc1cc3c(cc1OC)C(=O)N1C=C(C#Cc4ccccc4)C[C@H]1C=N3)N=C[C@@H]1CC(C#Cc3ccccc3)=CN1C2=O [ZC-209] has an IC50 (K562, 1 h, 1 hour incubation) of less than 10 nM.
C/C=C/C1=CN2C(=O)c3cc(OC)c(OCCCOc4cc5c(cc4OC)C(=O)N4C=C(/C=C/C)C[C@H]4C=N5)cc3N=C[C@@H]2C1 [ZC-211] gave an IC50 (1 hour incubation) of less than 10 nM.
